From patent US10435369B2, “Tricyclic sulfones as ROR gamma modulators” (BRISTOL-MYERS SQUIBB COMPANY, priority 2016, dated 2019)
Read-outs that look alike come from different tables or passages of the source.

Target: RORγ receptor (Homo sapiens, UniProt P51449)
Test: RORγ Gal4 reporter assay (Gal4-luciferase, inverse agonist activity)
Assay type: cell-based
Description: General RORγ Gal4 Reporter Assay
IC50 values were determined.

[1] = Jurkat cells stably over-expressing hRORγ, Gal4-luciferase reporter, overnight incubation, read-out: RORγ Gal4, IC50

Chain of RORγ receptor (P51449 269-508): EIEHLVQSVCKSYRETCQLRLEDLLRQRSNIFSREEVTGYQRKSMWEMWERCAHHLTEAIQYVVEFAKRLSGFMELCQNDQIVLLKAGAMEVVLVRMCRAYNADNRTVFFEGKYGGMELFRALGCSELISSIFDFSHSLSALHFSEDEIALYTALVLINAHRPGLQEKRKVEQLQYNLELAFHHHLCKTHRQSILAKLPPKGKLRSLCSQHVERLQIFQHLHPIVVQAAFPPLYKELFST

Row | Structure (SMILES) | IC50 [1] | IC50
1 | O=C(O)c1ccc(C(=O)N[C@@H]2CC[C@@]3(S(=O)(=O)c4ccc(F)cc4)c4ccc(C(F)(C(F)(F)F)C(F)(F)F)cc4CC[C@@H]23)cc1 [Example 162] | 22 nM | –
2 | Cc1ncn(C)c1C(=O)N[C@@H]1CC[C@@]2(S(=O)(=O)c3ccc(F)cc3)c3ccc(C(F)(C(F)(F)F)C(F)(F)F)cc3CC[C@@H]12 [Example 146] | 13 nM | –
3 | O=C(O)C1CCN(C(=O)[C@@H]2CC[C@@]3(S(=O)(=O)c4ccc(F)cc4)c4ccc(C(F)(C(F)(F)F)C(F)(F)F)cc4CC[C@@H]23)C1 (stereo partly shown) [Example 92] | 41 nM | –
4 | CC(NC(=O)[C@H](C)N)[C@@H]1CC[C@@]2(S(=O)(=O)c3ccc(F)cc3)c3ccc(C(F)(C(F)(F)F)C(F)(F)F)cc3CC[C@@H]12 (stereo partly shown) [Example 271] | 45 nM | –
5 | CC(NS(=O)(=O)c1cnn(C)c1)[C@@H]1CC[C@@]2(S(=O)(=O)c3ccc(F)cc3)c3ccc(C(F)(C(F)(F)F)C(F)(F)F)cc3CC[C@@H]12 (stereo partly shown) [Example 273] | 26 nM | –
6 | CS(=O)(=O)N1CCC(CNC(=O)[C@@H]2CC[C@@]3(S(=O)(=O)c4ccc(F)cc4)c4ccc(C(F)(C(F)(F)F)C(F)(F)F)cc4CC[C@@H]23)C1 (stereo partly shown) [Example 277] | 6 nM | –
7 | CNC(=O)CN(CC(=O)NC)[C@@H]1CC[C@@]2(S(=O)(=O)c3ccc(F)cc3)c3ccc(C(F)(C(F)(F)F)C(F)(F)F)cc3CC[C@@H]12 [Example 209, 2,2′-(((3R,3aS,9bS)-9b-((4-fluorophenyl)sulfonyl)-7-(perfluoropropan-2-yl)-2,3,3a,4,5,9b-hexahydro-1H-cyclopenta[a]naphthalen-3-yl)azanediyl)bis(N-methylacetamide)] | 166 nM | –
8 | Cc1nnsc1C(=O)N[C@@H]1CC[C@@]2(S(=O)(=O)c3ccc(F)cc3)c3ccc(C(F)(C(F)(F)F)C(F)(F)F)cc3CC[C@@H]12 [Example 147] | 9 nM | –
9 | O=C(N[C@@H]1CC[C@@]2(S(=O)(=O)c3ccc(F)cc3)c3ccc(C(F)(C(F)(F)F)C(F)(F)F)cc3CC[C@@H]12)C1=CCS(=O)(=O)CC1 [Example 299, N-((3R,3aS,9bS)-9b-((4-fluorophenyl)sulfonyl)-7-(perfluoropropan-2-yl)-2,3,3a,4,5,9b-hexahydro-1H-cyclopenta[a]naphthalen-3-yl)-3,6-dihydro-2H-thiopyran-4-carboxamide 1,1-dioxide] | – | 5 nM
10 | O=C(N[C@@H]1CC[C@@]2(S(=O)(=O)c3ccc(F)cc3)c3ccc(C(F)(C(F)(F)F)C(F)(F)F)cc3CC[C@@H]12)C1CCS(=O)(=O)CC1 [Example 149, N-((3R,3aS,9bS)-9b-((4-fluorophenyl)sulfonyl)-7-(perfluoropropan-2-yl)-2,3,3a,4,5,9b-hexahydro-1H-cyclopenta[a]naphthalen-3-yl)tetrahydro-2H-thiopyran-4-carboxamide 1,1-dioxide] | 9 nM | –
11 | O=C([C@@H]1CC[C@@]2(S(=O)(=O)c3ccc(F)cc3)c3ccc(C(F)(C(F)(F)F)C(F)(F)F)cc3CC[C@@H]12)N1CCC2(CCNC2=O)CC1 [Example 82] | 18 nM | –
12 | CS(=O)(=O)N1CC(O)(CNC(=O)[C@@H]2CC[C@@]3(S(=O)(=O)c4ccc(F)cc4)c4ccc(C(F)(C(F)(F)F)C(F)(F)F)cc4CC[C@@H]23)C1 [Example 279] | 19 nM | –
13 | CC(NC(=O)c1c[nH]cn1)[C@@H]1CC[C@@]2(S(=O)(=O)c3ccc(F)cc3)c3ccc(C(F)(C(F)(F)F)C(F)(F)F)cc3CC[C@@H]12 (stereo partly shown) [Example 257] | 27 nM | –
14 | CC(NS(=O)(=O)c1nc[nH]n1)[C@@H]1CC[C@@]2(S(=O)(=O)c3ccc(F)cc3)c3ccc(C(F)(C(F)(F)F)C(F)(F)F)cc3CC[C@@H]12 (stereo partly shown) [Example 274] | 62 nM | –
15 | O=C(O)[C@H]1CC[C@](F)(C(=O)N[C@@H]2CC[C@@]3(S(=O)(=O)c4ccc(F)cc4)c4ccc(C(F)(C(F)(F)F)C(F)(F)F)cc4CC[C@@H]23)CC1 [Example 192] | 24 nM | –
16 | CC(NS(=O)(=O)c1nc[nH]n1)[C@@H]1CC[C@@]2(S(=O)(=O)c3ccc(F)cc3)c3ccc(C(F)(C(F)(F)F)C(F)(F)F)cc3CC[C@@H]12 (stereo partly shown) [Example 275] | 65 nM | –

Row | Structure (SMILES) | IC50 [1] | IC50
17 | CS(=O)(=O)N1CCC(O)(C(=O)N[C@@H]2CC[C@@]3(S(=O)(=O)c4ccc(F)cc4)c4ccc(C(F)(C(F)(F)F)C(F)(F)F)cc4CC[C@@H]23)CC1 [Example 124] | 7 nM | –
18 | O=C(N[C@@H]1CC[C@@]2(S(=O)(=O)c3ccc(F)cc3)c3ccc(C(F)(C(F)(F)F)C(F)(F)F)cc3CC[C@@H]12)[C@@H](O)Cc1c[nH]cn1 [Example 158] | 14 nM | –
19 | O=C(N[C@@H]1CC[C@@]2(S(=O)(=O)c3ccc(F)cc3)c3ccc(C(F)(C(F)(F)F)C(F)(F)F)cc3CC[C@@H]12)c1ccc(=O)[nH]c1 [Example 188] | 9 nM | –
20 | CC(NC(=O)c1ccncn1)[C@@H]1CC[C@@]2(S(=O)(=O)c3ccc(F)cc3)c3ccc(C(F)(C(F)(F)F)C(F)(F)F)cc3CC[C@@H]12 (stereo partly shown) [Example 262] | 87 nM | –
21 | CN(C)[C@@H]1CC[C@@]2(S(=O)(=O)c3ccc(F)cc3)c3ccc(C(F)(C(F)(F)F)C(F)(F)F)cc3CC[C@@H]12 [Example 212] | 160 nM | –
22 | CC(NC(=O)c1ccncn1)[C@@H]1CC[C@@]2(S(=O)(=O)c3ccc(F)cc3)c3ccc(C(F)(C(F)(F)F)C(F)(F)F)cc3CC[C@@H]12 (stereo partly shown) [Example 261] | 34 nM | –
23 | O=C(N[C@@H]1CC[C@@]2(S(=O)(=O)c3ccc(F)cc3)c3ccc(C(F)(C(F)(F)F)C(F)(F)F)cc3CC[C@@H]12)C1(F)CCS(=O)(=O)CC1 [Example 298, 4-fluoro-N-((3R,3aS,9bS)-9b-((4-fluorophenyl)sulfonyl)-7-(perfluoropropan-2-yl)-2,3,3a,4,5,9b-hexahydro-1H-cyclopenta[a]naphthalen-3-yl)tetrahydro-2H-thiopyran-4-carboxamide 1,1-dioxide] | 7 nM | –
24 | C[C@H]1CN(C(=O)[C@@H]2CC[C@@]3(S(=O)(=O)c4ccc(F)cc4)c4ccc(C(F)(C(F)(F)F)C(F)(F)F)cc4CC[C@@H]23)CC[C@@H]1C(=O)O [Example 105] | 42 nM | –
25 | O=C(O)C12C3C4C1C1C2C3C41C(=O)N[C@@H]1CC[C@@]2(S(=O)(=O)c3ccc(F)cc3)c3ccc(C(F)(C(F)(F)F)C(F)(F)F)cc3CC[C@@H]12 (stereo partly shown) [Example 193] | 97 nM | –
26 | CC(NC(=O)[C@@H]1C[C@@H](F)C(=O)N1)[C@@H]1CC[C@@]2(S(=O)(=O)c3ccc(F)cc3)c3ccc(C(F)(C(F)(F)F)C(F)(F)F)cc3CC[C@@H]12 (stereo partly shown) [Example 268] | 21 nM | –
27 | [2H]C([2H])([2H])C(=O)N1CC(O)(CC(=O)N[C@@H]2CC[C@@]3(S(=O)(=O)c4ccc(F)cc4)c4ccc(C(F)(C(F)(F)F)C(F)(F)F)cc4CC[C@@H]23)C1 [Example 231, 2-(1-(acetyl-d3)-3-hydroxyazetidin-3-yl)-N-((3R,3aS,9bS)-9b-((4-fluorophenyl)sulfonyl)-7-(perfluoropropan-2-yl)-2,3,3a,4,5,9b-hexahydro-1H-cyclopenta[a]naphthalen-3-yl)acetamide] | – | 65 nM
28 | Cn1cc(C(=O)N[C@@H]2CC[C@@]3(S(=O)(=O)c4ccc(F)cc4)c4ccc(C(F)(C(F)(F)F)C(F)(F)F)cc4CC[C@@H]23)ccc1=O [Example 189] | 9 nM | –
29 | O=C1OCCN1[C@@H]1CC[C@@]2(S(=O)(=O)c3ccc(F)cc3)c3ccc(C(F)(C(F)(F)F)C(F)(F)F)cc3CC[C@@H]12 [Example 240, 3-((3R,3aS,9bS)-9b-((4-fluorophenyl)sulfonyl)-7-(perfluoropropan-2-yl)-2,3,3a,4,5,9b-hexahydro-1H-cyclopenta[a]naphthalen-3-yl)oxazolidin-2-one] | 9 nM | –
30 | O=C(N[C@@H]1CC[C@@]2(S(=O)(=O)c3ccc(F)cc3)c3ccc(C(F)(C(F)(F)F)C(F)(F)F)cc3CC[C@@H]12)c1cccnc1O [Example 161] | 16 nM | –
31 | CC(NC(=O)[C@@H]1C[C@@H](F)C(=O)N1)[C@@H]1CC[C@@]2(S(=O)(=O)c3ccc(F)cc3)c3ccc(C(F)(C(F)(F)F)C(F)(F)F)cc3CC[C@@H]12 (stereo partly shown) [Example 267] | 15 nM | –
